Tested on: IEC-18 cells
Assay: Repair of mechanically wounded IEC-18 monolayers
Format: cell-based, rat
Details: 5% PEG 15-20, 50 ng/ml EGF; after 24 hours
Procedure: In order to assess the ability of HMW PEG to induce the repair of epithelial monolayers following injury, IEC-18 cells were grown to confluency in 60 mm dishes, rinsed then the monolayer was mechanically wounded using a razor blade. Detached cells were removed and fresh medium containing 5% PEG 15-20, 50 ng/ml Epidermal Growth Factor (EGF) or a combination of both was added. The cells were maintained in the presence of treatment for 24 hours or were treated for 2 minutes, washed then incubated without treatment for 24 hours. Wound healing was assessed by the decrease in the length of the wound after 24 hours.

Substance: EGF: Epidermal Growth Factor, 50 ng/ml (NSDSECPLSHDGYCLHDGVCMYIEALDKYACNCVVGYIGERCQYRDLKWWELR; UniProt P01133 971-1023, looked up)
- wound healing (decrease in the length of the wound): induced wound healing

Reference: patent publication US20200016097A1, “Methods for Preventing and Treating Radiation-Induced Epithelial Disorders” (priority 2009, published 2020)
